Where two headings read alike, the source gives them in different places.
Assays:
A549 = test: MTT cytotoxicity assay, A549; assay type: cell-based, human; details: for EC50: Homo sapiens, A549, read-out: EC50 A549; for Selectivity index (SI): folds toxicity in A549 than in VERO cells: CC50 VERO vs EC50 A549
HepG2 = test: MTT cytotoxicity assay, HepG2; assay type: cell-based, human; details: for EC50: Homo sapiens, HepG2, read-out: EC50 HepG2; for Selectivity index (SI): folds more toxic respecting HepG2 than normal VERO cells: CC50 VERO vs EC50 HepG2
MCF-7 = test: MTT cytotoxicity assay, MCF-7; assay type: cell-based, human; details: for EC50: Homo sapiens, MCF7, read-out: EC50 MCF-7; for Selectivity index (SI): folds toxic in MCF-7 than in normal VERO cells: CC50 VERO vs EC50 MCF-7
VEGFR-2 = VEGFR-2 (Homo sapiens, UniProt P35968); test: In vitro VEGFR-2 kinase inhibitory assay; assay type: biochemical
EGFR^T790M = EGFR^T790M (Homo sapiens, UniProt P00533, T790M); test: In vitro EGFR^T790M kinase inhibitory assay; assay type: biochemical
HCT116 = test: MTT cytotoxicity assay, HCT116; assay type: cell-based, human; details: for EC50: Homo sapiens, HCT-116, read-out: EC50 HCT116; for Selectivity index (SI): folds lethalness in HCT-116 than in VERO cells: CC50 VERO vs EC50 HCT-116
EGFR^WT = EGFR^WT (Homo sapiens, UniProt P00533); test: In vitro EGFR^WT kinase inhibitory assay; assay type: biochemical
[1] = Cytotoxicity against VERO normal cell lines; details: African green monkey, VERO normal cells

Chain of EGFR^WT (P00533 25-1210): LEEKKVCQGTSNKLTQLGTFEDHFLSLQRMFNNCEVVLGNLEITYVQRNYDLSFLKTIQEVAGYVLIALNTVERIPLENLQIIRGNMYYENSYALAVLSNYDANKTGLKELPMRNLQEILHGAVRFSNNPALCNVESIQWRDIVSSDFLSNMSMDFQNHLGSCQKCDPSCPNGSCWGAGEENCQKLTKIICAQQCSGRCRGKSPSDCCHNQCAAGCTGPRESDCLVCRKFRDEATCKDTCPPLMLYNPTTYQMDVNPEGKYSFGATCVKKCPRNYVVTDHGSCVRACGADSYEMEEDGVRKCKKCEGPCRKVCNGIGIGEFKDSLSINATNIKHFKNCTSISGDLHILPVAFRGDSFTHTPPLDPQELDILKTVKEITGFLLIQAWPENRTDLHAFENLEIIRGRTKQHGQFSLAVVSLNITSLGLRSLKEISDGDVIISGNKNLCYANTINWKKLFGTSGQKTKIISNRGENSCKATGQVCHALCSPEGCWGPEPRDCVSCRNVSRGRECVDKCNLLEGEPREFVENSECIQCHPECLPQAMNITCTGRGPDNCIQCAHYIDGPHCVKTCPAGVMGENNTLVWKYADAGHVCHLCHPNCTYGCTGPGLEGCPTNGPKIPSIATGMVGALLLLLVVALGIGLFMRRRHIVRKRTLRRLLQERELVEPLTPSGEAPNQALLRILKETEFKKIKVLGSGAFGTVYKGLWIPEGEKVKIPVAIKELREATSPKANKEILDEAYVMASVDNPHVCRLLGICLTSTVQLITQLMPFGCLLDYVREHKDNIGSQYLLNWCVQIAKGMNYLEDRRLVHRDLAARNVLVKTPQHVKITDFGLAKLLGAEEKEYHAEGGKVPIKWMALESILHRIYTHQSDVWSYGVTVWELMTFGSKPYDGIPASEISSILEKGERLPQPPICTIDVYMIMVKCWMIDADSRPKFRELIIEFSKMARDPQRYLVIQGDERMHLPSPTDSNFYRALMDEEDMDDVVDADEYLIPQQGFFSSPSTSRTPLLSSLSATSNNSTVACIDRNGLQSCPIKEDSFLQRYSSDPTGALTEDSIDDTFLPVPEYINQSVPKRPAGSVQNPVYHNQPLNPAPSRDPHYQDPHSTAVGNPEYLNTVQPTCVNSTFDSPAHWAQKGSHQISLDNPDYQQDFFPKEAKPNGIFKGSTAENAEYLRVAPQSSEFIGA
Chain of EGFR^T790M (P00533 25-1210 T790M): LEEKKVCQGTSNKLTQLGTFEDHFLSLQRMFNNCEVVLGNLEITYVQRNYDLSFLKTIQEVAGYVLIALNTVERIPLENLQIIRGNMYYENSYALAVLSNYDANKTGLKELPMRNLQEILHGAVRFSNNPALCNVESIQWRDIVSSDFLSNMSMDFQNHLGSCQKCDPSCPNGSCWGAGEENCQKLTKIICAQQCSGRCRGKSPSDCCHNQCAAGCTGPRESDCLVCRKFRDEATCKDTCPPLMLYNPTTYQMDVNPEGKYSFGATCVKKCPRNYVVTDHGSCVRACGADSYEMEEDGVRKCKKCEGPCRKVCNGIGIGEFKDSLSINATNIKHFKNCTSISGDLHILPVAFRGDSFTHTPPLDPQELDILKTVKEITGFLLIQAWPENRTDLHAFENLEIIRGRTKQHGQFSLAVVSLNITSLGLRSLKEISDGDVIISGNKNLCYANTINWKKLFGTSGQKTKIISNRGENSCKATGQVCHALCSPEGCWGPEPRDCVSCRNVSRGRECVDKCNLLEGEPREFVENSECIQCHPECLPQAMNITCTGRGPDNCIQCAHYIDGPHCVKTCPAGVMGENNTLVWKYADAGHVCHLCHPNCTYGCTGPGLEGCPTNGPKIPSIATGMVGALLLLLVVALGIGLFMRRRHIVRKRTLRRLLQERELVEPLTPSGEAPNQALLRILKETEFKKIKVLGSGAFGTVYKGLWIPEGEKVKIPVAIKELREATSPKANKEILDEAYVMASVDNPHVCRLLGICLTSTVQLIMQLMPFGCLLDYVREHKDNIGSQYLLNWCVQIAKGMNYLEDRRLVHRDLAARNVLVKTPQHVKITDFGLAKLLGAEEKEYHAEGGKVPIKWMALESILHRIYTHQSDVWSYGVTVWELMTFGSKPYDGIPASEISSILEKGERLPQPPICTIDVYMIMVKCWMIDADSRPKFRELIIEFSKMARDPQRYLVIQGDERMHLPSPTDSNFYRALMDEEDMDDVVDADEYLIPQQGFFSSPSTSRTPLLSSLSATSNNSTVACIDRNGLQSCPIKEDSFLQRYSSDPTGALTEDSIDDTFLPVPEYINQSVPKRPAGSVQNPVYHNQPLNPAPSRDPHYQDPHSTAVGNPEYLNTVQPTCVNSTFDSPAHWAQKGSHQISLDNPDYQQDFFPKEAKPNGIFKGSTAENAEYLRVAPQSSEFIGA
Chain of VEGFR-2 (P35968 20-1356): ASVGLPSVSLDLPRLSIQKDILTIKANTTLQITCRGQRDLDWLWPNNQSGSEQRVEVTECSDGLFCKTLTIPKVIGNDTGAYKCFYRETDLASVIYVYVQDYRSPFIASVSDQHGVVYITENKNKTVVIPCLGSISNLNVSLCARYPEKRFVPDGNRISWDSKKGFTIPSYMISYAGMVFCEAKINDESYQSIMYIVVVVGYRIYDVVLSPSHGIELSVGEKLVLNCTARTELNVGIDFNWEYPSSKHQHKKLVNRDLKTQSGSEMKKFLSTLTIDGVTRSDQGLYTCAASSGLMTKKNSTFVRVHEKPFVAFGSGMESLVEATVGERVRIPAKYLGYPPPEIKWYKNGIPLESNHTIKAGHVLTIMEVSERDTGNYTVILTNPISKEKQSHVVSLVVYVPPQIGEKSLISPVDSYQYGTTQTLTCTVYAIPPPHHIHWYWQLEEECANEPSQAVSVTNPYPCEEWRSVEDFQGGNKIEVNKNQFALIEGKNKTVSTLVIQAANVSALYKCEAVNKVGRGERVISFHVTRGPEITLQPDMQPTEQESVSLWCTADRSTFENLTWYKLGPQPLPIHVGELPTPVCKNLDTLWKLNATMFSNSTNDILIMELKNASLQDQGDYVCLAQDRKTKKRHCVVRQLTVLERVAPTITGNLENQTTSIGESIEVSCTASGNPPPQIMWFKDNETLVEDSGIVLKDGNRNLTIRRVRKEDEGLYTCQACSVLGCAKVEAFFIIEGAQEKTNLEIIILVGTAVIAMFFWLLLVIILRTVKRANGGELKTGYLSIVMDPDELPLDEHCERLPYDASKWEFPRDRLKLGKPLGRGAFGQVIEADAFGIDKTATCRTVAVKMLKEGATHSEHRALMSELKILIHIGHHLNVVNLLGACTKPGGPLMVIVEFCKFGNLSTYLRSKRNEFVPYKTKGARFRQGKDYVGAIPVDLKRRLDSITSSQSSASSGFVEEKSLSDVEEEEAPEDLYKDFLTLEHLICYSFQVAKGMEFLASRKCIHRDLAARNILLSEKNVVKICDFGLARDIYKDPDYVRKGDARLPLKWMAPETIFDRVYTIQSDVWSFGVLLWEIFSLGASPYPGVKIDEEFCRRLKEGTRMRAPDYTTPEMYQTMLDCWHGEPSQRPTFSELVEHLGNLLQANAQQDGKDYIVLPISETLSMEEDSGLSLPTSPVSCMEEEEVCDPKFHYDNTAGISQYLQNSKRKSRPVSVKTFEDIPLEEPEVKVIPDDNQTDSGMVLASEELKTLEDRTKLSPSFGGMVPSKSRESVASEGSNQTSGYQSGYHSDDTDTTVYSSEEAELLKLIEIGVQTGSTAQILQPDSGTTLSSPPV

| Structure (SMILES) | EC50 (A549) [µM] | EC50 (HepG2) [µM] | EC50 (MCF-7) [µM] | IC50 (VEGFR-2) [µM] | IC50 (EGFR^T790M) [µM] | EC50 (HCT116) [µM] | Selectivity index (SI): folds toxicity in A549 than in VERO cells (A549) [folds] | Selectivity index (SI): folds more toxic respecting HepG2 than normal VERO cells (HepG2) [folds] | Selectivity index (SI): folds toxic in MCF-7 than in normal VERO cells (MCF-7) [folds] | IC50 (EGFR^WT) [µM] | CC50 [1] [µM] | Selectivity index (SI): folds lethalness in HCT-116 than in VERO cells (HCT116) [folds] | IC50 (EGFR^T790M; IC50 EGFR^T790M) [µM] |
| --- | --- | --- | --- | --- | --- | --- | --- | --- | --- | --- | --- | --- | --- |
| CCn1c(=O)n(CC(=O)Nc2ccc(C(=O)OC)cc2)c(=O)c2cc(I)ccc21 [Compound 5a, Methyl 4-{2-[1-ethyl-6-iodo-2,4-dioxo-1,4-dihydroquinazolin-3(2H)-yl]acetamido}benzoate] | 8.45 ± 0.7 | 12.5 ± 0.7 | 11.6 ± 0.7 | 2 ± 0.25 | 0.86 ± 0.5 | 11.4 ± 0.7 |  |  |  |  |  |  |  |
| CCOC(=O)c1ccc(NC(=O)Cn2c(=O)c3cc(I)ccc3n(CC)c2=O)cc1 [Compound 5b, Ethyl 4-{2-[1-ethyl-6-iodo-2,4-dioxo-1,4-dihydroquinazolin-3(2H)-yl]acetamido}benzoate] | 6.78 ± 0.7 | 7.59 ± 0.7 | 7.4 ± 0.7 | 1.5 ± 0.1 | 0.8 ± 0.5 | 6.55 ± 0.7 |  |  |  |  |  |  |  |
| CCCn1c(=O)n(CC(=O)Nc2ccc(C(=O)OC)cc2)c(=O)c2cc(I)ccc21 [Compound 5c, Methyl 4-{2-[6-iodo-2,4-dioxo-1-propyl-1,4-dihydroquinazolin-3(2H)-yl]acetamido}benzoate] | 6.73 ± 0.7 | 7.75 ± 0.7 | 7.96 ± 0.7 | 1.5 ± 0.5 | 0.92 ± 0.5 | 6.93 ± 0.7 |  |  |  |  |  |  |  |
| CCCn1c(=O)n(CC(=O)Nc2ccc(C(=O)OCC)cc2)c(=O)c2cc(I)ccc21 [Compound 5d, Ethyl 4-{2-[6-iodo-2,4-dioxo-1-propyl-1,4-dihydroquinazolin-3(2H)-yl]acetamido}benzoate] | 6.68 ± 0.7 | 7.5 ± 0.7 | 7.37 ± 0.7 | 1.25 ± 0.1 | 0.4 ± 0.35 | 6.52 ± 0.7 | 6.98 | 6.21 | 6.32 | 0.32 ± 0.03 | 46.6 ± 0.5 | 7.15 |  |
| CCNC(=O)c1ccc(NC(=O)Cn2c(=O)c3cc(I)ccc3n(CC)c2=O)cc1 [Compound 6a, 4-{2-[1-Ethyl-6-iodo-2,4-dioxo-1,4-dihydroquinazolin-3(2H)-yl]acetamido}-N-ethylbenzamide] | 7.95 ± 0.8 | 7.8 ± 0.8 | 8.5 ± 0.8 | 1.4 ± 0.2 | 0.9 ± 0.5 | 7.6 ± 0.8 |  |  |  |  |  |  |  |
| CCCn1c(=O)n(CC(=O)Nc2ccc(C(=O)NC)cc2)c(=O)c2cc(I)ccc21 [Compound 6b, 4-{2-[6-Iodo-2,4-dioxo-1-propyl-1,4-dihydroquinazolin-3(2H)-yl]acetamido}-N-methylbenzamide] | 6.7 ± 0.8 | 8.5 ± 0.8 | 8.15 ± 0.8 | 1.65 ± 0.1 | 0.6 ± 0.35 | 8.35 ± 0.8 |  |  |  |  |  |  |  |
| CCn1c(=O)n(CC(=O)Nc2ccc(C(=O)NN)cc2)c(=O)c2cc(I)ccc21 [Compound 7a, 2-(1-Ethyl-6-iodo-2,4-dioxo-1,4-dihydroquinazolin-3(2H)-yl)-N-(4-(hydrazinecarbonyl)phenyl)-acetamide] | 13.7 ± 1.5 | 16 ± 1.5 | 15.5 ± 1.5 | 2.5 ± 0.25 | 1.5 ± 0.5 | 13.2 ± 1.5 |  |  |  |  |  |  |  |
| CCCn1c(=O)n(CC(=O)Nc2ccc(C(=O)NN)cc2)c(=O)c2cc(I)ccc21 [Compound 7b, N-[4-(hydrazinecarbonyl)phenyl]-2-(6-iodo-2,4-dioxo-1-propyl-1,4-dihydroquinazolin-3(2H)-yl)acetamide] | 15.1 ± 1.5 | 15.5 ± 1.5 | 13.9 ± 1.5 | 2.25 ± 0.25 | 2.05 ± 0.5 | 15.9 ± 1.5 |  |  |  |  |  |  |  |
| CCn1c(=O)n(CC(=O)Nc2ccc(-c3nnc(S)o3)cc2)c(=O)c2cc(I)ccc21 [Compound 8a, 2-[1-Ethyl-6-iodo-2,4-dioxo-1,4-dihydroquinazolin-3(2H)-yl]-N-[4-(5-mercapto-1,3,4-oxadiazol-2-yl)phenyl]acetamide] | 10.1 ± 0.9 | 7.55 ± 0.9 | 8.25 ± 0.9 | 1.5 ± 0.1 | 1 ± 0.5 | 7.25 ± 0.9 |  |  |  |  |  |  |  |
| CCCn1c(=O)n(CC(=O)Nc2ccc(-c3nnc(S)o3)cc2)c(=O)c2cc(I)ccc21 [Compound 8b, 2-[6-Iodo-2,4-dioxo-1-propyl-1,4-dihydroquinazolin-3(2H)-yl]-N-[4-(5-mercapto-1,3,4-oxadiazol-2-yl)phenyl]acetamide] | 6.7 ± 0.5 | 7.5 ± 0.7 | 7.45 ± 0.7 | 1.38 ± 0.1 | 0.45 ± 0.35 | 6.75 ± 0.7 | 7.57 | 6.77 | 6.81 | 0.38 ± 0.03 | 50.75 ± 0.5 | 7.52 |  |
| CCn1c(=O)n(CC(=O)Nc2ccc(C(=O)NN=Cc3ccccc3)cc2)c(=O)c2cc(I)ccc21 [Compound 9a, N-[4-(2-benzylidenehydrazine-1-carbonyl)phenyl]-2-[1-ethyl-6-iodo-2,4-dioxo-1,4-dihydroquinazolin-3(2H)-yl]acetamide] | 6.75 ± 0.7 | 6.8 ± 0.7 | 7.5 ± 0.7 | 1 ± 0.1 | 0.75 ± 0.5 | 6.29 ± 0.7 | 6.74 | 6.69 | 6.07 |  | 45.5 ± 0.5 | 7.23 | 1.5 |
| CCn1c(=O)n(CC(=O)Nc2ccc(C(=O)NN=Cc3ccc(C)cc3)cc2)c(=O)c2cc(I)ccc21 [Compound 9b, 2-[1-Ethyl-6-iodo-2,4-dioxo-1,4-dihydroquinazolin-3(2H)-yl]-N-{4-[2-(4-methylbenzylidene)hydrazine-1-carbonyl]phenyl}acetamide] | 6.75 ± 0.6 | 6.2 ± 0.7 | 6.7 ± 0.6 | 0.9 ± 0.1 | 0.5 ± 0.35 | 5.93 ± 0.6 | 7.30 | 7.94 | 7.35 | 0.35 ± 0.03 | 49.2 ± 0.5 | 8.31 |  |
| CCn1c(=O)n(CC(=O)Nc2ccc(C(=O)NN=Cc3ccc(OC)cc3)cc2)c(=O)c2cc(I)ccc21 [Compound 9c, 2-[1-Ethyl-6-iodo-2,4-dioxo-1,4-dihydroquinazolin-3(2H)-yl]-N-{4-[2-(4-methoxybenzylidene)-hydrazine-1-carbonyl]phenyl}acetamide] | 5.25 ± 0.5 | 5 ± 0.5 | 6 ± 0.5 | 0.85 ± 0.1 | 0.22 ± 0.3 | 5.17 ± 0.5 | 10.48 | 11.00 | 9.17 | 0.15 ± 0.03 | 55 ± 0.5 | 10.64 |  |
| CCCn1c(=O)n(CC(=O)Nc2ccc(C(=O)NN=Cc3ccccc3)cc2)c(=O)c2cc(I)ccc21 [Compound 9d, N-[4-(2-benzylidenehydrazine-1-carbonyl)phenyl]-2-[6-iodo-2,4-dioxo-1-propyl-1,4-dihydroquinazolin-3(2H)-yl]acetamide] | 5.48 ± 0.5 | 5.65 ± 0.5 | 6.45 ± 0.5 | 0.9 ± 0.1 | 0.26 ± 0.3 | 6.5 ± 0.5 | 9.20 | 8.92 | 7.81 | 0.2 ± 0.03 | 50.39 ± 0.5 | 7.75 |  |
| CCCn1c(=O)n(CC(=O)Nc2ccc(C(=O)NN=Cc3ccc(Cl)cc3)cc2)c(=O)c2cc(I)ccc21 [Compound 9e, N-{4-[2-(4-chlorobenzylidene)hydrazine-1-carbonyl]phenyl}-2-{6-iodo-2,4-dioxo-1-propyl-1,4-dihydroquinazolin-3(2H)-yl}acetamide] | 6.3 ± 0.7 | 7.36 ± 0.7 | 7.3 ± 0.7 | 1.2 ± 0.1 | 0.3 ± 0.3 | 6.7 ± 0.7 | 7.30 | 6.25 | 6.30 | 0.25 ± 0.03 | 46 ± 0.5 | 6.87 |  |
| C#Cc1cccc(Nc2ncnc3cc(OCCOC)c(OCCOC)cc23)c1 [Erlotinib, reference compound] | 5.49 ± 0.45 | 7.73 ± 0.67 | 13.9 ± 1.3 |  |  | 8.2 ± 0.34 |  |  |  |  |  |  |  |
| CNC(=O)c1cc(Oc2ccc(NC(=O)Nc3ccc(Cl)c(C(F)(F)F)c3)cc2)ccn1 [Sorafenib, reference compound] | 4.04 ± 0.33 | 4 ± 0.33 |  |  |  | 5.58 ± 0.55 |  |  |  |  |  |  |  |

From article PMC10716637 (RSC Advances, 2023)
